Holding throughout (format): cell-based, human
Common to all, as to settings: 24 h

One test deals with AU-565 cells. Here is the method:
(§1) MDA-MB-468, MDA-MB-231, BT-474, AU-565, HB2, and MCF-10A cells were procured from American Type Culture Collection (ATCC) and validated for lack of mycoplasma contamination (MycoAlert; Lonza, Basel, Switzerland) and identity (short tandem repeat profiling; Source Bioscience, Nottingham, UK). Cells (except MCF-10A) were cultured in Dulbecco’s modified Eagle medium (DMEM) supplemented with 10% (v/v) fetal calf serum (FCS) and 100 units/mL penicillin–streptomycin (Thermo Scientific; Waltham, MA, USA). MCF-10A was cultured in DMEM supplemented with 5% horse serum, 0.1 μg/mL cholera toxin, 0.5 μg/mL hydrocortisone, 0.02 μg/mL epidermal growth factor, and 100 units/mL penicillin–streptomycin (Thermo Scientific, Waltham, MA, USA). Cells were grown at 37 °C in a humidified incubator with 5% CO2. Cells were maintained and experiments were performed under conditions ensuring cell densities that supported exponential growth.
(§2) Cells were seeded in 96-well plates at 1 × 10^4 cells/well in complete growth media and incubated for 18 h. Cells were then treated with peptides (0–250 μM) for up to 24 h. Cells were then incubated with 0.5 mg/mL MTT dissolved in PBS for 3 h. Formazan crystals were dissolved using […] of isopropanol and absorbance was measured at 570 nm on a microplate spectrophotometer (Biotech Instruments, USA). For spheroids assays, MDA-MB-468 or HB2 cells (1000 cells/well) were seeded in 250 μL of DMEM supplemented with 10% FCS and 2.5% Matrigel (Corning, New York, USA) in low-adherent, round-bottom 96-well plates (Corning, New York, USA). The plates were centrifuged at 360g for 10 min and subsequently incubated for 48 h to allow spheroid formation. MDA-MB-468 or HB2 spheroids were then treated with peptides at the IC50 doses determined for MDA-MB-468 cells for 24 h. Cellular viability within spheroids was assessed by staining with Hoechst 33342 (5 μg/mL) for 30 min, followed by propidium iodide (PI) (1.5 μg/mL) for 10 min. Red fluorescence indicated nonviable cells stained with PI, whereas blue fluorescence represented both viable and nonviable cells stained with Hoechst 33342. The survival of spheroids was determined by calculating ratios of blue/red fluorescence using ImageJ software.
(§3) A panel of human breast epithelial cell lines was established, including two lines from a nontransformed origin (MCF-10A; HB2) and four cancer lines (BT-474; AU-565; MDA-MB-231; MDA-MB-468). Cells were treated with different doses of MP1 or the modified peptides. Survival was assessed relative to untreated using MTT assays (Figures and S2) and IC50 doses were determined for each peptide in each cell line.

The next test concerns MDA-MB-231 cells. As for the experimental part: as §1, §2, §3
A further test relates to HB2 cells. As for the experimental part: as §1, §2, §3
The subject of a further test is MDA-MB-468 cells. As for the experimental part: as §1, §2, §3
Another test concerns MCF-10A cells. As for the experimental part: as §1, §2, §3
The next test relates to BT-474 cells. Here is the method:
as §1, §2, §3

The structures appear in SMILES notation. Residues, ends and D or L forms follow the SMILES beside them.

One may read the IC50 as the midpoint of a concentration-inhibition curve. For `CC[C@H](C)[C@H](N)C(=O)N[C@@H](CC(=O)O)C(=O)N[C@@H](Cc1c[nH]c2ccccc12)C(=O)N[C@@H](CCCCN)C(=O)N[C@@H](CCCCN)C(=O)N[C@@H](CC(C)C)C(=O)N[C@@H](CC(C)C)C(=O)N[C@@H](CC(=O)O)C(=O)N[C@@H](C)C(=O)N[C@@H](C)C(=O)N[C@@H](CCCCN)C(=O)N[C@@H](CCC(N)=O)C(=O)N[C@H](C(=O)N[C@@H](CC(C)C)C(=O)NCC(=O)NCC(=O)N[C@@H](Cc1ccc(O)cc1)C(=O)N[C@@H](Cc1c[nH]cn1)C(=O)N[C@@H](Cc1c[nH]c2ccccc12)C(=O)N[C@@H](Cc1ccc(O)cc1)C(=O)NCC(=O)N[C@@H](Cc1ccc(O)cc1)C(=O)N[C@H](C(=O)N1CCC[C@H]1C(=O)N[C@@H](CCC(=O)O)C(=O)N[C@@H](CC(N)=O)C(=O)N[C@H](C(=O)N[C@H](C(=O)O)[C@@H](C)CC)C(C)C)[C@@H](C)O)[C@@H](C)CC` [EGFR-MP1] (H-IDWKKLLDAAKQILGGYHWYGYTPENVI-OH), the 50% inhibitory concentration (IC50) was found to be 91.4 µM in the test with AU-565 cells; 39.3 µM in the test with MDA-MB-231 cells; 71.4 µM in the test with HB2 cells; 39.6 µM with MDA-MB-468 cells; 93.4 µM in the test with MCF-10A cells; 98.3 µM in the test on BT-474 cells.

As for `CC[C@H](C)[C@H](N)C(=O)N[C@@H](CCCCN)C(=O)N[C@@H](Cc1c[nH]c2ccccc12)C(=O)N[C@@H](CCCCN)C(=O)N[C@@H](CCCCN)C(=O)N[C@@H](CC(C)C)C(=O)N[C@@H](CC(C)C)C(=O)N[C@@H](CC(=O)O)C(=O)N[C@@H](C)C(=O)N[C@@H](C)C(=O)N[C@@H](CCCCN)C(=O)N[C@@H](CCC(N)=O)C(=O)N[C@H](C(=O)N[C@@H](CC(C)C)C(=O)NCC(=O)NCC(=O)N[C@@H](Cc1ccc(O)cc1)C(=O)N[C@@H](Cc1c[nH]cn1)C(=O)N[C@@H](Cc1c[nH]c2ccccc12)C(=O)N[C@@H](Cc1ccc(O)cc1)C(=O)NCC(=O)N[C@@H](Cc1ccc(O)cc1)C(=O)N[C@H](C(=O)N1CCC[C@H]1C(=O)N[C@@H](CCC(=O)O)C(=O)N[C@@H](CC(N)=O)C(=O)N[C@H](C(=O)N[C@H](C(=O)O)[C@@H](C)CC)C(C)C)[C@@H](C)O)[C@@H](C)CC` [EGFR-D2K] (H-IKWKKLLDAAKQILGGYHWYGYTPENVI-OH), the IC50 in the test with HB2 cells came to 50.5 µM; in the test on MDA-MB-468 cells, 27.2 µM.

Values taken from publication PMC13147323, “EGFR-Targeted and MMP-Activated Membranolytic Peptides Kill Cancer Cells Specifically In Vitro and Reduce Tumor Growth In Vivo” (Molecular Pharmaceutics, 2026).
